The test system of the assay is Trypanosoma brucei Lister 427 VSG221 with APOL1 G0 recombinant protein. The experiment in a line: APOL1 G0 trypanosome cell rescue assay (Example B5). Format: cell-based. The following applies: Trypanosoma brucei, 20 h, read-out: APOL1 G0 Trypanosome Rescue EC50, Trypanosoma brucei Lister 427 VSG221 with APOL1 G0 recombinant protein, 20 hours, CellTiter-Glo; geometric mean of at least 2 assay runs; † = single assay run. The method in brief:
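Recombinant mature APOL1 (residues 28-398, His-tag removed, E. coli-expressed, refolded from inclusion bodies, DDM buffer) at […] added with 250 trypanosomes/well in modified HMI-9 media. Duplicate 11-point 2-fold compound series, 0.4% DMSO; 20 h at 37° C, 5% CO2, then CellTiter-Glo luminescence for viability.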
On the technique in general: ATP-based viability assays read luminescence as a measure of living cells.

One may read the EC50 as the concentration that produces a half-maximal response. Turning to `CC(COc1ccc(C2(S(C)(=O)=O)COC2)cc1)N1CCC2(CC1)C(=O)Nc1ccc(C#N)cc12` (single isomer, unassigned) [Compound 263, (S) or (R)-1′-{1-[4-(3-methanesulfonyloxetan-3-yl)phenoxy]propan-2-yl}-2-oxo-1,2-dihydrospiro[indole-3,4′-piperidine]-5-carbonitrile], the EC50 is 0.226 µM. With `CC1(O)CN(c2ncc(OCCN3CCC4(CC3)C(=O)Nc3ccc(Cl)cc34)cn2)C1` [Compound 300, 5-chloro-1′-(2-{[2-(3-hydroxy-3-methylazetidin-1-yl)pyrimidin-5-yl]oxy}ethyl)-1,2-dihydrospiro[indole-3,4′-piperidin]-2-one], the concentration for a half-maximal effect (EC50) was determined as 0.375 µM.

For `CS(=O)(=O)c1ccc(OCCN2CCC3(CC2)C(=O)Nc2ccc(Cl)cc23)cc1C(O)CO` (centres unmarked) [Compound 216, 5-chloro-1′-{2-[3-(1,2-dihydroxyethyl)-4-methanesulfonylphenoxy]ethyl}-1,2-dihydrospiro[indole-3,4′-piperidin]-2-one], the EC50 amounted to 0.629 µM.

As for `O=C1CCc2cc(OCCN3CCC4(CC3)C(=O)Nc3ccc(Cl)cc34)cnc2N1[C@H]1C[C@@](O)(C2CC2)C1` (single isomer, unassigned) [Compound 297, 5-chloro-1′-[2-({7-oxo-8-[(trans)-3-cyclopropyl-3-hydroxycyclobutyl]-5,6,7,8-tetrahydro-1,8-naphthyridin-3-yl}oxy)ethyl]-1,2-dihydrospiro[indole-3,4′-piperidin]-2-one], the concentration giving a half-maximal response (EC50) was 0.0726 µM. For `CS(=O)(=O)C1(c2ccc(OCCN3CCC4(CC3)C(=O)Nc3ccc(C(F)F)cc34)cc2)CC(O)C1` (single isomer, unassigned) [Compound 281, 5-(difluoromethyl)-1′-(2-{4-[(cis) or (trans)-3-hydroxy-1-methanesulfonylcyclobutyl]phenoxy}ethyl)-1,2-dihydrospiro[indole-3,4′-piperidin]-2-one], the 50% effective concentration (EC50) was 0.0959 µM. To `CS(=O)(=O)C1(c2ncc(OCCN3CCC4(CC3)C(=O)Nc3ccc(C#N)cc34)cc2F)CC1` [Compound 283, 1′-(2-{[5-fluoro-6-(1-methanesulfonylcyclopropyl)pyridin-3-yl]oxy}ethyl)-2-oxo-1,2-dihydrospiro[indole-3,4′-piperidine]-5-carbonitrile] belongs 0.216 µM; to `O=C1CCc2cc(OCCN3CCC4(CC3)C(=O)Nc3ccc(Cl)cc34)ccc2N1[C@H]1C[C@H](O)C1` [Compound 224, 5-chloro-1′-[2-({2-oxo-1-[(trans)-3-hydroxycyclobutyl]-1,2,3,4-tetrahydroquinolin-6-yl}oxy)ethyl]-1,2-dihydrospiro[indole-3,4′-piperidin]-2-one], 0.066 µM.

Take `CS(=O)(=O)c1ccc(OCCN2CCCC3(CC2)C(=O)Nc2ccccc23)cc1` (centres unmarked) [Compound 26, 1-(2-(4-(methylsulfonyl)phenoxy)ethyl)spiro[azepane-4,3′-indolin]-2′-one]: the concentration giving a half-maximal response (EC50) is greater than 4 µM. Turning to `CN1C(=O)C2(CCN(CCOc3ccc(C(=O)N4CCS(=O)(=O)CC4)c(C(F)(F)F)c3)CC2)c2cc(C#N)ccc21` [Compound 261, 1′-{2-[4-(1,1-dioxo-1λ^6-thiomorpholine-4-carbonyl)-3-(trifluoromethyl)phenoxy]ethyl}-1-methyl-2-oxo-1,2-dihydrospiro[indole-3,4′-piperidine]-5-carbonitrile], the concentration for a half-maximal effect (EC50) was 0.084 µM. As to `CN1C(=O)C2(CCN(CCOc3ccc(S(=O)(=O)CCCS(C)(=O)=O)cc3)CC2)c2cc(Cl)ccc21` [Compound 23, 5-chloro-1′-{2-[4-(3-methanesulfonylpropanesulfonyl)phenoxy]ethyl}-1-methyl-1,2-dihydrospiro[indole-3,4′-piperidin]-2-one], the half-maximal effective concentration (EC50) is 0.321 µM. Next, `CC(COc1ccc2c(c1)CCC(=O)N2C)N1CCC2(CC1)C(=O)Nc1ccc(C#N)cc12` (single isomer, unassigned) [Compound 203, (S) or (R)-1′-{1-[(1-methyl-2-oxo-1,2,3,4-tetrahydroquinolin-6-yl)oxy]propan-2-yl}-2-oxo-1,2-dihydrospiro[indole-3,4′-piperidine]-5-carbonitrile]: 0.565 µM. Regarding `C[C@@H](COc1ccc(S(C)(=O)=O)c(C(F)F)c1)N1CCC2(CC1)C(=O)Nc1ccc(C#N)cc12` (single isomer, unassigned) [Compound 212], the half-maximal effective concentration (EC50) amounted to 0.0696 µM. Next, `C[C@]1(O)C[C@@H](N2C(=O)OCc3cc(OCCN4CCC5(CC4)C(=O)Nc4ccc(Cl)cc45)cnc32)C1` [Compound 289, 5-chloro-1′-[2-({2-oxo-1-[(cis)-3-hydroxy-3-methylcyclobutyl]-1H,2H,4H-pyrido[2,3-d][1,3]oxazin-6-yl]oxy)ethyl]-1,2-dihydrospiro[indole-3,4′-piperidin]-2-one]: 0.0382 µM; `CN1C(=O)CCc2cc(OCCN3CCC4(CC3)C(=O)Nc3ccc(Cl)cc34)ccc21` [Compound 27, 5-chloro-1′-[2-[(1-methyl-2-oxo-3,4-dihydroquinolin-6-yl)oxy]ethyl]spiro[indoline-3,4′-piperidine]-2-one]: 0.201 µM; `CS(=O)(=O)c1ccc(OCCN2CCC3(CC2)C(=O)N(CCO)c2ccc(Cl)cc23)cc1C(F)F` [Compound 265, 5-chloro-1′-{2-[3-(difluoromethyl)-4-methanesulfonylphenoxy]ethyl}-1-(2-hydroxyethyl)-1,2-dihydrospiro[indole-3,4′-piperidin]-2-one]: 0.0676 µM. To `CS(=O)(=O)c1ccc(OCCN2CCC3(CC2)C(=O)N(CCO)c2ccc(C#N)cc23)cc1C(F)F` [Compound 266, 1′-{2-[3-(difluoromethyl)-4-methanesulfonylphenoxy]ethyl}-1-(2-hydroxyethyl)-2-oxo-1,2-dihydrospiro[indole-3,4′-piperidine]-5-carbonitrile] belongs 0.236 µM; to `O=C(c1ccc(OCCN2CCC3(CC2)C(=O)Nc2ccc(Cl)cc23)cc1F)N1CC2(C1)CS(=O)(=O)C2` [Compound 239, 6-[4-(2-{5-chloro-2-oxo-1,2-dihydrospiro[indole-3,4′-piperidin]-1′-yl}ethoxy)-2-fluorobenzoyl]-2λ^6-thia-6-azaspiro[3.3]heptane-2,2-dione], 0.04 µM. `C[C@]1(O)C[C@@H](N2C(=O)CCc3cc(OCCN4CCC5(CC4)C(=O)Nc4ccc(C(F)F)cc45)cnc32)C1` [Compound 274, 5-(difluoromethyl)-1′-[2-({7-oxo-8-[(cis)-3-hydroxy-3-methylcyclobutyl]-5,6,7,8-tetrahydro-1,8-naphthyridin-3-yl}oxy)ethyl]-1,2-dihydrospiro[indole-3,4′-piperidin]-2-one]: the concentration for a half-maximal effect (EC50) was 0.0593 µM.

Regarding `CC[C@]1(O)C[C@H](N2C(=O)CCc3cc(OCCN4CCC5(CC4)C(=O)Nc4ccc(Cl)cc45)cnc32)C1` (single isomer, unassigned) [Compound 290, 5-chloro-1′-[2-({7-oxo-8-[(trans)-3-ethyl-3-hydroxycyclobutyl]-5,6,7,8-tetrahydro-1,8-naphthyridin-3-yl}oxy)ethyl]-1,2-dihydrospiro[indole-3,4′-piperidin]-2-one], the concentration for a half-maximal effect (EC50) is 0.0555 µM. Take `O=C1CCc2cc(OCCN3CCC4(CC3)C(=O)Nc3ccc(Cl)cc34)cnc2N1CCO` [Compound 192, 5-chloro-1′-(2-{[8-(2-hydroxyethyl)-7-oxo-5,6,7,8-tetrahydro-1,8-naphthyridin-3-yl]oxy}ethyl)-1,2-dihydrospiro[indole-3,4′-piperidin]-2-one]: the concentration giving a half-maximal response (EC50) came to 0.108 µM.

With `O=C1Nc2ccc(Cl)cc2C12CCN(CCOc1ccc(S(=O)(=O)C3(CO)CC3)nc1)CC2` [Compound 248, 5-chloro-1′-{2-[(6-{[1-(hydroxymethyl)cyclopropyl]sulfonyl}pyridin-3-yl)oxy]ethyl}-1,2-dihydrospiro[indole-3,4′-piperidin]-2-one], the concentration giving a half-maximal response (EC50) was found to be 0.0862 µM. In the case of `O=C(c1ccc(OCCN2CCC3(CC2)C(=O)Nc2ccc(Cl)cc23)cc1C(F)(F)F)N1CCS(=O)(=O)CC1` [Compound 272, 4-[4-(2-{5-chloro-2-oxo-1,2-dihydrospiro[indole-3,4′-piperidin]-1′-yl}ethoxy)-2-(trifluoromethyl)benzoyl]-1λ^6-thiomorpholine-1,1-dione], the EC50 worked out at 0.0589 µM. To `CC(O)c1ncc(OCCN2CCC3(CC2)C(=O)Nc2ccc(Cl)cc23)cn1` (centres unmarked) [Compound 284, 5-chloro-1′-(2-{[2-(1-hydroxyethyl)pyrimidin-5-yl]oxy}ethyl)-1,2-dihydrospiro[indole-3,4′-piperidin]-2-one] belongs 0.808 µM.

These data come from patent US12344610B2, “APOL1 inhibitors and methods of use” (Maze Therapeutics, Inc., priority 2022, dated 2025).
